In one test the target is GSK3β (Homo sapiens, UniProt P49841). Briefly: GSK3β kinase assay (Caliper LabChip3000 mobility shift, fluoresceinated peptide substrate). In kind it is biochemical.
For another test, the system named is pTau. In words: pTau assay (no method described). In kind it is cell-based.
The target of another test is GSK3α (Homo sapiens, UniProt P49840). In words: GSK3α kinase assay (Caliper LabChip3000 mobility shift, fluoresceinated peptide substrate).
Setting [1] is: 250 pM enzyme, 20 uM ATP, 1.5 uM peptide, 20 hours room temperature, first value of cell GSK3β/GSK3α, read-out: GSK3β (nM), IC50.

Structures are written as SMILES. Where two headings read alike, the source gives them in different places.

GSK3β, sequence (P49841 whole entry, species assumed): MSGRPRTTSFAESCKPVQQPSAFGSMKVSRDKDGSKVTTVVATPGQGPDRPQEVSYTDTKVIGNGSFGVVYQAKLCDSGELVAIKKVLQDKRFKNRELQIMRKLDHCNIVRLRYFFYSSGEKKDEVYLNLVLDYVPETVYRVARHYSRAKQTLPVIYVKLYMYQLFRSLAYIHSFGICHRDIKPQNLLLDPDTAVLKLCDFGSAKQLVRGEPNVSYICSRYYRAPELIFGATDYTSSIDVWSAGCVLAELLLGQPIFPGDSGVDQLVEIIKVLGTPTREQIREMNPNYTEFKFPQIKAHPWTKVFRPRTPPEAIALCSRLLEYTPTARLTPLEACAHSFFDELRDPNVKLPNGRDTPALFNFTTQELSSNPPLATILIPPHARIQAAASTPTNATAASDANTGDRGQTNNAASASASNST
GSK3α, sequence (P49840 whole entry, species assumed): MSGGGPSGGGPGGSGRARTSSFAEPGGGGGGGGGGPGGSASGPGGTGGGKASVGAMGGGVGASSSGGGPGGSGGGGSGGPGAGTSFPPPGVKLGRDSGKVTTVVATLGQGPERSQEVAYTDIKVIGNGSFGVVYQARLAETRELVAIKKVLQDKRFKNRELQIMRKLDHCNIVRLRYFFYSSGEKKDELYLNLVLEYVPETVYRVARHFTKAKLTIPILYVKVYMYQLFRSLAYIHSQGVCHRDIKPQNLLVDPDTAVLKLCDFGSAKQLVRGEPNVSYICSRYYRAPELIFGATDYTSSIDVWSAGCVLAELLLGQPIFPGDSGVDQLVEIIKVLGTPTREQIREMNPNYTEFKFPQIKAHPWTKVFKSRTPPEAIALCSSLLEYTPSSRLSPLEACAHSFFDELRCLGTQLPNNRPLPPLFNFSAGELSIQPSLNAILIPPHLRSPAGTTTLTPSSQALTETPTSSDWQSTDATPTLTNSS
Experimental for GSK3β: The kinase assay was performed in V-bottom 384-well plates. […] The reaction was incubated at room temperature for 20 hours and terminated by adding 45 μl of 35 mM EDTA to each sample. The reaction mixture was analyzed on the Caliper LabChip3000 (Caliper, Hopkinton, Mass.) by electrophoretic separation of the unphosphorylated substrate and phosphorylated product. […] Compounds were dissolved at 10 mM in dimethylsulfoxide (DMSO) and evaluated at eleven concentrations. IC50 values were derived by non-linear regression analysis.

Regarding `O=C(Nc1cnccc1-c1ccccc1)c1ccnc(NC2CCCOC2)n1` (stereo not drawn) [Example 94, N-(4-Phenylpyridin-3-yl)-2-((tetrahydro-2H-pyran-3-yl)amino)pyrimidine-4-carboxamide], the IC50 is 5.1 nM on GSK3β (setting [1]), 210 nM in the test with pTau and 3.5 nM on GSK3α.

Consider `Cc1cc(Nc2nccc(C(=O)Nc3cnccc3-c3ccccc3)n2)sn1` [Example 95, 2-((3-Methylisothiazol-5-yl)amino)-N-(4-phenylpyridin-3-yl)pyrimidine-4-carboxamide], for which the IC50 on GSK3β (setting [1]) amounted to 5.7 nM; with pTau, 78 nM; at GSK3α it was 0.7 nM.

With `CN(C)CCOc1ccc(Nc2nccc(C(=O)Nc3cnccc3-c3ccccc3)n2)cn1` [Example 96, 2-((6-(2-(Dimethylamino)ethoxy)pyridin-3-yl)amino)-N-(4-phenylpyridin-3-yl)pyrimidine-4-carboxamide], the IC50 is 18 nM at GSK3β (setting [1]), 900 nM in the test on pTau and 11 nM on GSK3α.

Regarding `Cn1nc(C2CC2)cc1Nc1nccc(C(=O)Nc2cnccc2-c2ccccc2)n1` [Example 97, 2-((3-Cyclopropyl-1-methyl-1H-pyrazol-5-yl)amino)-N-(4-phenylpyridin-3-yl)pyrimidine-4-carboxamide], the results for the IC50 on GSK3β (setting [1]), in the test with pTau and at GSK3α were 29 nM, 870 nM and 30 nM, respectively.

Take `Cn1ccc(Nc2nccc(C(=O)Nc3cnccc3-c3ccccc3)n2)n1` [Example 98, 2-((1-Methyl-1H-pyrazol-3-yl)amino)-N-(4-phenylpyridin-3-yl)pyrimidine-4-carboxamide]: the concentration for half-maximal inhibition (IC50) on GSK3β (setting [1]) was 46 nM; in the test on pTau it was 2600 nM; on GSK3α it was 37 nM.

On to `Cn1cc(Nc2nccc(C(=O)Nc3cnccc3-c3ccccc3)n2)nn1` [Example 99, 2-((1-Methyl-1H-1,2,3-triazol-4-yl)amino)-N-(4-phenylpyridin-3-yl)pyrimidine-4-carboxamide], for which the IC50 on GSK3β (setting [1]) was 78 nM; with pTau, 10000 nM; at GSK3α it was 190 nM.

For `CC(C)CNc1ccc(Nc2nccc(C(=O)Nc3cnccc3-c3ccccc3)n2)cn1` [Example 100, 2-((6-(Isobutylamino)pyridin-3-yl)amino)-N-(4-phenylpyridin-3-yl)pyrimidine-4-carboxamide], the IC50 at GSK3β (setting [1]) turned out to be 93 nM; in the test with pTau it was 10000 nM; at GSK3α, 65 nM.

For the molecule `O=C(Nc1cnccc1-c1ccccc1)c1ccnc(Nc2cnns2)n1` [Example 101, 2-((1,2,3-Thiadiazol-5-yl)amino)-N-(4-phenylpyridin-3-yl)pyrimidine-4-carboxamide], the values for the IC50 at GSK3β (setting [1]), in the test on pTau and on GSK3α were 100 nM, 9000 nM and 42 nM, respectively.

Turning to `Cn1cnc(Nc2nccc(C(=O)Nc3cnccc3-c3ccccc3)n2)c1` [Example 102, 2-((1-Methyl-1H-imidazol-4-yl)amino)-N-(4-phenylpyridin-3-yl)pyrimidine-4-carboxamide], the IC50 at GSK3β (setting [1]) is 260 nM; with pTau it was 10000 nM; on GSK3α it was 170 nM.

With `Cc1ccc(Nc2nccc(C(=O)Nc3cncc(-c4ccccc4F)c3)n2)cn1` [Example 103, N-(5-(2-Fluorophenyl)pyridin-3-yl)-2-((6-methylpyridin-3-yl)amino)pyrimidine-4-carboxamide], the IC50 on GSK3β (setting [1]) was 3.1 nM; in the test with pTau, 510 nM; at GSK3α, 1.3 nM.

As for `O=C(Nc1cncc(-c2ccccc2F)c1)c1ccnc(Nc2ccc(F)nc2)n1` [Example 104, N-(5-(2-Fluorophenyl)pyridin-3-yl)-2-((6-fluoropyridin-3-yl)amino)pyrimidine-4-carboxamide], the figures for the IC50 at GSK3β (setting [1]), in the test with pTau and at GSK3α were 4.8 nM, 660 nM and 2.1 nM, respectively.

In the case of `O=C(Nc1cncc(-c2ccccc2F)c1)c1ccnc(Nc2ccc(OC(F)F)nc2)n1` [Example 105, 2-((6-(Difluoromethoxy)pyridin-3-yl)amino)-N-(5-(2-fluorophenyl)pyridin-3-yl)pyrimidine-4-carboxamide], the IC50 worked out at 31 nM at GSK3β (setting [1]), 2100 nM in the test with pTau and 15 nM at GSK3α.

Take `O=C(Nc1cnccc1OCC(F)(F)F)c1ccnc(Nc2ccc3cnccc3c2)n1` [Example 106, 2-(Isoquinolin-6-ylamino)-N-(4-(2,2,2-trifluoroethoxy)pyridin-3-yl)pyrimidine-4-carboxamide]: the values for the IC50 on GSK3β (setting [1]), in the test with pTau and on GSK3α were 0.11 nM, 1.9 nM and 0.09 nM, respectively.

As for `O=C(Nc1cnccc1OCC(F)(F)F)c1ccnc(Nc2ccc3cccnc3c2)n1` [Example 107, 2-(Quinolin-7-ylamino)-N-(4-(2,2,2-trifluoroethoxy)pyridin-3-yl)pyrimidine-4-carboxamide], the IC50 on GSK3β (setting [1]) was determined as 0.17 nM; in the test on pTau, 9.4 nM; on GSK3α it was 0.24 nM.

Consider `O=C(Nc1cnc(F)cc1OCC(F)(F)F)c1ccnc(Nc2ccc(C(F)(F)F)cc2)n1` [Example 109, N-(6-Fluoro-4-(2,2,2-trifluoroethoxy)pyridin-3-yl)-2-((4-(trifluoromethyl)phenyl)amino) pyrimidine-4-carboxamide], for which the IC50 was 0.88 nM at GSK3β (setting [1]), 44 nM in the test with pTau and 0.43 nM at GSK3α.

As for `O=C(Nc1cnc(F)cc1OCC(F)(F)F)c1ccnc(Nc2ccc(Cl)cc2)n1` [Example 110, 2-((4-Chlorophenyl)amino)-N-(6-fluoro-4-(2,2,2-trifluoroethoxy)pyridin-3-yl)pyrimidine-4-carboxamide], the IC50 came out at 1.1 nM on GSK3β (setting [1]), 65 nM in the test with pTau and 0.68 nM on GSK3α.

Take `O=C(Nc1cnccc1OCC(F)(F)F)c1ccnc(Nc2ccc(C(F)(F)F)cn2)n1` [Example 111, N-(4-(2,2,2-Trifluoroethoxy)pyridin-3-yl)-2-((5-(trifluoromethyl)pyridin-2-yl)amino)pyrimidine-4-carboxamide]: the IC50 was found to be 2.9 nM at GSK3β (setting [1]), 220 nM in the test on pTau and 2.2 nM on GSK3α.

As for `O=C(Nc1cnccc1OCC(F)(F)F)c1ccnc(Nc2ccc(F)cc2F)n1` [Example 113, 2-((2,4-Difluorophenyl)amino)-N-(4-(2,2,2-trifluoroethoxy)pyridin-3-yl)pyrimidine-4-carboxamide], the IC50 at GSK3β (setting [1]) was 5.3 nM; in the test on pTau, 300 nM; at GSK3α, 4 nM.

For the molecule `O=C(Nc1cnccc1OCC(F)(F)F)c1ccnc(Nc2ccccn2)n1` [Example 114, 2-(Pyridin-2-ylamino)-N-(4-(2,2,2-trifluoroethoxy)pyridin-3-yl)pyrimidine-4-carboxamide], the values for the IC50 on GSK3β, in the test on pTau and at GSK3α were 20 nM, 210 nM and 14 nM, respectively.

With `O=C(Nc1cnccc1OCC(F)(F)F)c1ccnc(NC2CCCC2)n1` [Example 116, 2-(Cyclopentylamino)-N-(4-(2,2,2-trifluoroethoxy)pyridin-3-yl)pyrimidine-4-carboxamide], the IC50 at GSK3β (setting [1]) is 0.19 nM; in the test on pTau it was 12 nM; at GSK3α, 0.16 nM.

`O=C(Nc1cnccc1OCC(F)(F)F)c1ccnc(NC2CCCCC2)n1` [Example 117, 2-(Cyclohexylamino)-N-(4-(2,2,2-trifluoroethoxy)pyridin-3-yl)pyrimidine-4-carboxamide]: the values for the IC50 on GSK3β (setting [1]), in the test with pTau and on GSK3α were 0.25 nM, 28 nM and 0.21 nM, respectively.

Take `O=C(Nc1cnccc1OCC(F)(F)F)c1ccnc(NCC2CC2)n1` [Example 118, 2-((Cyclopropylmethyl)amino)-N-(4-(2,2,2-trifluoroethoxy)pyridin-3-yl)pyrimidine-4-carboxamide]: the IC50 turned out to be 0.3 nM at GSK3β (setting [1]), 14 nM in the test with pTau and 0.28 nM on GSK3α.

With `CC(C)Nc1nccc(C(=O)Nc2cnccc2OCC(F)(F)F)n1` [Example 120, 2-(Isopropylamino)-N-(4-(2,2,2-trifluoroethoxy)pyridin-3-yl)pyrimidine-4-carboxamide], the IC50 at GSK3β (setting [1]) was 0.44 nM; with pTau it was 26 nM; on GSK3α it was 1.4 nM.

Consider `CC(C)(C)C1CCC(Nc2nccc(C(=O)Nc3cnccc3OCC(F)(F)F)n2)CC1` (stereo not drawn) [Example 121, 2-((4-(tert-Butyl)cyclohexyl)amino)-N-(4-(2,2,2-trifluoroethoxy)pyridin-3-yl)pyrimidine-4-carboxamide], for which the IC50 stood at 0.46 nM on GSK3β (setting [1]), 61 nM in the test with pTau and 0.35 nM at GSK3α.

As to `CC(C)(C)[C@H]1CC[C@@H](Nc2nccc(C(=O)Nc3cnccc3OCC(F)(F)F)n2)CC1` [Example 122], the values for the IC50 at GSK3β (setting [1]), in the test on pTau and at GSK3α were 8.4 nM, 4200 nM and 12 nM, respectively.

For the molecule `CCNc1nccc(C(=O)Nc2cnccc2OCC(F)(F)F)n1` [Example 123, 2-(Ethylamino)-N-(4-(2,2,2-trifluoroethoxy)pyridin-3-yl)pyrimidine-4-carboxamide], the IC50 on GSK3β (setting [1]) amounted to 0.92 nM; with pTau, 55 nM; on GSK3α, 4.5 nM.

`O=C(Nc1cnccc1OCC(F)(F)F)c1ccnc(NC2CCOCC2)n1` [Example 124, 2-((Tetrahydro-2H-pyran-4-yl)amino)-N-(4-(2,2,2-trifluoroethoxy)pyridin-3-yl)pyrimidine-4-carboxamide]: the IC50 is 0.99 nM at GSK3β, 68 nM with pTau and 0.95 nM on GSK3α.

Turning to `CC(C)C(C)Nc1nccc(C(=O)Nc2cnccc2OCC(F)(F)F)n1` (stereo not drawn) [Example 125, 2-((3-Methylbutan-2-yl)amino)-N-(4-(2,2,2-trifluoroethoxy)pyridin-3-yl)pyrimidine-4-carboxamide], the IC50 turned out to be 1.1 nM on GSK3β (setting [1]), 55 nM in the test on pTau and 0.84 nM on GSK3α.

Regarding `CC(Nc1nccc(C(=O)Nc2cnccc2OCC(F)(F)F)n1)C(C)(C)C` (stereo not drawn) [Example 126, 2-((3,3-Dimethylbutan-2-yl)amino)-N-(4-(2,2,2-trifluoroethoxy)pyridin-3-yl)pyrimidine-4-carboxamide], the values for the IC50 at GSK3β (setting [1]), in the test with pTau and on GSK3α were 1.1 nM, 110 nM and 0.41 nM, respectively.

Broadly, the IC50 is the concentration needed to halve the response being measured.

The values are drawn from US10752609B2, “GSK-3 inhibitors” (priority 2016, dated 2020).
